The results in this text go back to patent publication US8562947B2, “Oxidized avidin with high residency time in the treated tissues” (Sigma-Tau Industrie Farmaceutiche Riunite S.p.A., priority 2007, dated 2013).

Where “and” joins values, the source holds several entries; their conditions need not be identical. Equal values may be shown once. Bounds are passed on as bounds.

A short description of series [1]: BiotinDOTA (ST2210) binding capacity by HABA assay. The settings on record: WTavidin value assumed as 100%.
A short description of series [2]: Isothermal Titration Calorimetry of avidin/ST2210 interaction. Particulars: for KA / N (stoichiometry): ITC with ST2210; for association constants (KA): ITC with ST2210, text. It counts as binding. On the technique in general: ITC needs no label: the signal is the heat of the interaction.
The nature of series [3]: Thermal stability and conformational changes by circular dichroism spectroscopy (melting curves). Particulars: for p (slope of sigmoidal curve) / Tm: without biotin; for Tm: dichroic signal at 225 nm, 25-95° C.; for thermal denaturation reversibility: heated without biotin. It counts as physicochemical. The method, then:
Thermal stability and conformational changes were determined by circular dichroism spectroscopy before and after oxidation, with and without 4 equivalents of biotin. Melting curves were recorded by following the decrease of dichroic signal at 225 nm in the temperature range 25-95° C. The point of inflection and slope (p) of sigmoidal curves were calculated by means of Boltzman fitting model of the scientific graphing and data analysis Origin® 7.0 software and represent the point of transition through the denatured condition.
For each specific compound, the thermal stability corresponds to the temperature which matches the point of inflection of the corresponding curve registered in the temperature range 25-95° C.
Background: CD spectra are sensitive to the conformation of chiral molecules.

On the set-up of series [4]: species or system Balb/c nu/nu mice. Particulars: mouse, in vivo. The method, then:
The animal model of intraoperative avidination for radionuclide treatment IART® was set up by performing a surgical cut in one hind limb of a mouse, infiltrating radiolabelled avidin in the surgical margins and surrounding tissues and measuring radioactivity in the treated limb at different time points after administration. In a parallel group of mice, the radioactive avidin was infiltrated to the limb without surgery.
The amount of radioactivity, after 1 and 24 hours from administration was similar in the surgically treated and not surgically treated animals. Therefore, further studies were performed by infiltrating avidin without surgery. […] Labelled avidin was separated from free iodine by chromatography on a PD-10 column (Amersham Biosciences, Uppsala, Sweden) and oxidized as previously described in the Example 1 without any prior HABA protection.
Mice were sacrificed 1, 24 or 48 hours after ^111In-ST2210 administration and the treated and controlateral limbs, kidney, liver and blood samples were collected and counted in a gamma-counter (Camberra Packard, Schwadorf, Austria).

Series [5] in a line: Long term tissue permanence of wild type and oxidized avidins. It counts as in vivo, Balb/c nu/nu mice. Particulars: referred to the 1 hour level; treated hind limb.
The nature of series [6]: Permanence in rabbit mammary tissue. Type of series: in vivo, rabbits. Particulars: for % ID/breast (+/− SD) at 24 h: rabbit mammary tissue; for amount found in the mammary tissue: rabbit, after 24 hours. As for the experimental part:
OXavidinHABA was evaluated for its permanence in the mammary tissue in comparison to WTavidin. […] The animals were sacrificed after 24 h from injection and tissue samples of the injected area of about 200 mg were collected and counted in a gamma counter as previously described. The data are the average (+/−SD) of 3 determinations.

Series [7] in a line: Tissue localization in cryosections of avidinated muscle (immunofluorescence, haematoxylin/eosin). Type of series: in vivo, Balb/c nude mice. The settings on record: 24 hrs from injection. The method, then:
OXavidinHABA was evaluated for tissue localization in comparison to WTavidin in cryosections of avidinated tissues after intramuscular injection into one hind limb of Balb/c nude mice (Harlan, Udine Italy). The muscles were excised 24 hrs after treatment and serial cryosections were prepared from each sample. Each slide was stained with haematoxylin/eosin to evaluate the tissue morphology or incubated with a mouse anti avidin antibody (A5680, Sigma Aldrich, Italy) followed by anti mouse Alexa fluor 488 (Invitrogen, Milan Italy). Finally, slides were mounted with coverslips and observed under microscope.

Series [8] is classed as in vivo, Balb/c nu/nu mice. Particulars: for distribution of 111In-ST2210 in non target organs: mouse, in vivo. The method, then: After 48 hours from injection, the animals received intravenously (i.v.) 5 μg of ^111In-ST2210.
Groups of 5 animals were sacrificed at the indicated time points and radioactivity in the treated limb as well as in other non target organs measured by gamma counter (Camberra Packard, Schwadorf Austria).
One group of animals received a first intravenous dose of 5 μg of cold ST2210 24 hours prior to a second one of 5 μg ^111In-ST2210. The former occurred 24 hours after avidination. The animals were sacrificed 2 hours after i.v. injection of radiolabelled-ST2210 and radioactivity in the treated limb was measured by gamma counter as above.

On the set-up of series [9]: species or system Balb/c mice. The settings on record: mouse, in vivo. From the text: ^125I-OXavidinHABA was saturated in vitro with ST2210, purified from unbound ST2210 by ultrafiltration and intramuscularly injected into one hind limb of Balb/c mice. The same protocol was followed with regard to WTavidin.
Series [10] in a line: Tissue permanence of wild type, pegylated or oxidized avidins. It counts as in vivo, C57Bl/6 mice. Particulars: 24 hours after i.m. injection in hind limb. As for the experimental part: Radioactivity in the treated limb was measured by gamma counter (Camberra Packard, Schwadorf Austria).
Chemically modified avidins were previously described by other groups with the intent of improving the avidin half-life in circulation (Caliceti P., et al., J. Control. Release, 2002, 83, 97; Salmaso S., et al., Int. J. Pharm., 2007, 340, 20). […] After 24 hours from injection, the animals were sacrificed and radioactivity in the treated limb was measured by gamma counter (Camberra Packard, Schwadorf Austria).

The subject of series [11] is tumoral lesions of the mammary gland of NeuT mice. Briefly: Therapeutic efficacy of pre-targeted brachytherapy in NeuT transgenic mice (whole mount analysis of mammary gland). Type of series: in vivo, Balb-NeuT mice. The settings on record: compared to vehicle or WTavidin-treated breast; 90Y-ST2210 800 μCi. As for the experimental part:
Two animals/group were sacrificed 3 hours after administration and both breasts IV and III excised and counted in a gamma counter as above. Non target organs were also collected weighted and counted. Data are expressed as the % ID/g of tissue. The effect of this pre-targeted brachytherapy on the tumoral lesions were evaluated by whole mount analysis of the mammary gland as described previously (De Giovanni C., et al., Cancer Research, 2004, 64, 4001).

For series [12] the following is noted: mouse, in vivo.
Experimental: The injection into brain was performed through the left side of the skull, by using a Hamilton syringe, at a depth of 4-5 mm.

For the substance “OXavidinHABA 1 mM NaIO4: avidin oxidized with 1 mM NaIO4 in presence of 1 mM HABA”, the “BiotinDOTA binding % ± SD” value in series [1] was 99.0 ± 0.2%. In series [2], the KA is 4.58e+06 ± 249000 M⁻¹ and the “N (stoichiometry)” value turned out to be 2.5 ± 0.008.

With “OXavidin 5 mM NaIO4: avidin oxidized with 5 mM NaIO4 without HABA”, the “BiotinDOTA binding % ± SD” value in series [1] came out at 55.7 ± 2.2%.

For “OXavidinHABA 5 mM NaIO4: avidin oxidized with 5 mM NaIO4 in presence of 1 mM HABA”, the “BiotinDOTA binding % ± SD” value in series [1] was 95.0 ± 1.7%. In series [2], the KA worked out at 5.42e+06 ± 590000 M⁻¹ and the “N (stoichiometry)” value was 1.9 ± 0.012.

The term Tm denotes the temperature at which the thermal transition is half complete. For the substance “WTavidin: wild type avidin, glycoprotein of about 68 kDa present in egg white, high affinity for biotin [reference compound]”, in series [3], the “p (slope of sigmoidal curve)” value was 14.7 and the Tm is 79.0 °C. For the same substance, in series [3] (listed as Avidin), the Tm was found to be 79.0 ± 0.1 °C and the “p (slope of sigmoidal curve)” value was found to be 14.7 ± 0.3. Also, in series [3] (listed as avidin), the Tm was 79.0 °C and the “p (slope of sigmoidal curve)” value was 14.7. Further, the “BiotinDOTA binding % ± SD” value in series [1] was 100^@ %. Moreover, in [2], the stoichiometry of interaction was 3.0 molecules of ST2210 per molecule, the KA amounted to 3.45e+06 ± 307000 M⁻¹, the “N (stoichiometry)” value is listed as 3.0 ± 0.016 and the “association constants (KA)” value amounted to 3.45e+06 M⁻¹. Besides, the “distribution in the non target organs (blood, kidney, liver)” value in series [4] is given as “higher distribution”. This substance had a tissue half life in series [5] of 2 h. Besides, in [6], the “% ID/breast (+/− SD) at 24 h” value was 8.5 (1.13) % ID/breast and the “amount found in the mammary tissue” value is 8.5 % ID. Moreover, in series [7], the “haematoxylin/eosin staining of muscle” value is on record as “no histological abnormalities”. In addition, the “distribution of 111In-ST2210 in non target organs” value in [8] was “similar”. In addition, the “amount in the treated limb” value in series [9] is < 0.5 % ID/100 mg.

As to “PEGavidin: PEG-conjugated avidin prepared according to Caliceti [reference compound]”, the “tissue permanence compared to WTavidin” value in [10] is on record as “did not affect the tissue permanence”.

For “OXavidinHABA 20 mM NaIO4: avidin oxidized with 20 mM NaIO4 in presence of 1 mM HABA”, the “BiotinDOTA binding % ± SD” value is 81.4% in series [1] and 81.4 ± 1.0 % in [1] (listed as OXavidinHABA 20 mM NaIO4 + 1 mM HABA). Also, the KA in series [2] came out at 2.5e+06 ± 132000 M⁻¹. Moreover, the “N (stoichiometry)” value in series [2] is reported as 1.5 ± 0.007.

Take “OXavidinHABA: HABA-saturated avidin oxidized with sodium periodate; NaIO4 concentration not stated at these places”: in series [3], the thermal denaturation reversibility result was “irreversible”; the “p (slope of sigmoidal curve)” value was 11.2 and 11.2 ± 0.4; the Tm is 78.1 °C and 78.1 ± 0.3 °C. Besides, in [2], the stoichiometry of interaction is reported as 1.7 molecules of ST2210 per molecule and the “association constants (KA)” value turned out to be 2.5e+06 M⁻¹. Besides, in series [5], the tissue half life entry is recorded as “about 2 weeks”. Further, in [6], the “% ID/breast (+/− SD) at 24 h” value is reported as 65.8 (0.08) % ID/breast and the “amount found in the mammary tissue” value stood at 65.8 % ID. In series [10], the “tissue permanence compared to WTavidin” value was “increase of tissue permanence”. In addition, the “haematoxylin/eosin staining of muscle” value in series [7] is recorded as “no histological abnormalities”. Also, the “specific captation of 111In-ST2210 in treated tissue compared with WTavidin” value in series [8] (2 hours from i.v. injection, 48 hours after avidination) was “much higher”. Further, the “captation of second dose of 111In-ST2210 in treated limb” value in series [8] (after a first dose of cold ST2210 24 hours before) is given as “comparable to that obtained with the single dose”. In addition, in series [8], the “distribution of 111In-ST2210 in non target organs” value is on record as “similar”. For the same substance, the “effect on cancer lesions of the mammary gland” value in series [11] is recorded as “significant reduction of cancer lesions”. In series [9], the “amount in the treated limb” value is on record as 17 % ID/100 mg. Also, the “residence in the brain” value in series [12] is given as “about 12.65±6.59 % ID/100 mg of tissue”.

Regarding “OXavidinHABA 40 mM NaIO4 + 1 mM HABA: avidin oxidized with 40 mM NaIO4 in presence of 1 mM HABA”, the “BiotinDOTA binding % ± SD” value in [1] is on record as 73.0 ± 0.6%.

In the case of “OXavidin 40 mM NaIO4: avidin oxidized with 40 mM NaIO4 without HABA”, the “BiotinDOTA binding % ± SD” value in series [1] is given as 44.5 ± 0.9%.

For the substance “OXavidinHABA 10 mM NaIO4: avidin oxidized with 10 mM NaIO4 in presence of 1 mM HABA”, the “BiotinDOTA binding % ± SD” value is given as 86.3% in series [1] and 86.3 ± 1.6 % in series [1] (listed as OXavidinHABA 10 mM NaIO4 + 1 mM HABA). The substance further registered a KA in series [2] of 3.34e+06 ± 212000 M⁻¹. For the same substance, in [2], the “N (stoichiometry)” value was 1.7 ± 0.008.

For the substance “OXavidin: avidin oxidized with sodium periodate without prior HABA protection; NaIO4 concentration not stated at these places”, in [3], the thermal denaturation reversibility entry was “irreversible”; the “p (slope of sigmoidal curve)” value is 8.9 and 8.9 ± 0.1; the midpoint of thermal melting (Tm) was 74.3 °C and 74.3 ± 0.1 °C. In series [2], the stoichiometry of interaction was 1.2 molecules of ST2210 per molecule and the KA amounted to 645000 M⁻¹. For the same substance, in series [4], the “amount in the treated limb compared to native avidin” value is given as “more than double” and the “distribution in the non target organs (blood, kidney, liver)” value is “lower distribution”. For the same substance, the tissue half life entry in series [5] was “about 2 weeks”.

Turning to “OXavidin 20 mM NaIO4: avidin oxidized with 20 mM NaIO4 without HABA”, in series [1], the “BiotinDOTA binding % ± SD” value was 49.1% and 49.1 ± 2.1%. Moreover, in series [2], the KA stood at 645000 ± 56900 M⁻¹ and the “N (stoichiometry)” value was found to be 1.2 ± 0.012.

With “OXavidin 10 mM NaIO4: avidin oxidized with 10 mM NaIO4 without HABA”, the “BiotinDOTA binding % ± SD” value in [1] was 50.9% and 50.9 ± 2.4%.

Consider “OXavidin 1 mM NaIO4: avidin oxidized with 1 mM NaIO4 without HABA”, for which the “BiotinDOTA binding % ± SD” value in series [1] amounted to 77.2 ± 0.9%.
